Laboratory results published in article PMC8224038, “Anti-Leukemic Properties of Aplysinopsin Derivative EE-84 Alone and Combined to BH3 Mimetic A-1210477” (Marine Drugs, 2021).

Legend:
Type in all cases: cell-based, human
[1] = tested on: K562 cells; assay: Hoechst/PI staining by fluorescent microscopy; settings: K562, 50 μM, 72 h
Text: The percentage of apoptotic cells was quantified as the fraction of cells showing fragmented nuclei, as assessed by fluorescence microscopy (Nikon, Tokyo, Japan) after staining with Hoechst 33342 (Sigma-Aldrich) and propidium iodide (Sigma-Aldrich). In addition, apoptosis was confirmed by Annexin V APC (Biolegend, 640919)/propidium iodide (BD Biosciences, 556547) staining and fluorescence-activated cell sorter (FACS) analysis according to the manufacturer protocol (BD Biosciences, 556547).

[2] = tested on: K562; assay: Methocult colony formation assay; settings: K562, 48-h pretreatment
Experimental: For 48 h pretreatment of EE-84 colony formation assays, approximately 3 × 10^5 cells were seeded in each well of a 24-well plate, treated with EE-84 at indicated concentrations, and incubated at 37 °C and 5% of CO2 in a humidified atmosphere for 48 h. After 48 h, 1000 cells were counted and grown in a semisolid methylcellulose medium (Methocult H4230, StemCell Technologies Inc., Vancouver, BC, Canada) supplemented with 10% FBS. Colonies were detected after 10 days of culture by adding 1 mg/mL of 3-(4,5-dimethylthiazol-2-yl)-2,5-diphenyltetrazolium bromide (MTT) reagent (Sigma-Aldrich) and were analyzed by Image J 1.8.0 software (U.S. National Institute of Health, Bethesda, MD, USA).

[3] = tested on: K562 cells; assay: Cell cycle analysis (PI, FACS)
Experimental: Cells were collected and fixed in 70% ethanol. DNA was stained with propidium iodide (PI) solution (1 μg/mL, Sigma-Aldrich, St. Louis, MO, USA) in 1XPBS (Biosesang, Seongnam, Korea) for 30 min at 37 °C, supplemented with RNase A (100 μg/mL, Roche, Basel, Switzerland). Samples were analyzed by flow cytometry using the FACSCalibur^TM system, Becton Dickinson (BD) Biosciences (San Jose, CA, USA). Data were recorded statistically (10,000 events/sample) using the Cell Quest software (BD Biosciences) and analyzed using Flow-Jo 8.8.5 software (Tree Star, Inc., Ashland, OR, USA).

Structure (SMILES): COc1ccc2c(c1)c(C(=O)C(=O)Nc1sc3c(c1C(C)=O)CC(C)CC3)cn2Cc1ccccc1 (centres unmarked) [EE-84, N-(3-Acetyl-4,5,6,7-Tetrahydro-5-Methylbenzo[b]Thiophen-2-yl)-2-(1-Benzyl-5-Methoxy-1H-Indol-3-yl)-2-Oxoacetamide]
- propidium iodide (PI)-positive cells without nuclear fragmentation [1]: 11.0 ± 4.23%
- total surface area and average size of colonies [2]: reduced
- G1 cell cycle phase ([3]; K562, 48 h, EE-84 10 μM): 59.59 ± 1.12%
- G2/M cell cycle phase ([3]; K562, 48 h, EE-84 10 μM): 18.64 ± 0.75%
- S cell cycle phase ([3]; K562, 48 h, EE-84 10 μM): 20.30 ± 1.68%
- Sub-G1 cell cycle phase ([3]; K562, 48 h, EE-84 10 μM): 1.48 ± 0.81%
- G1 cell cycle phase ([3]; K562, 48 h, EE-84 30 μM): 61.11 ± 1.58%
- G2/M cell cycle phase ([3]; K562, 48 h, EE-84 30 μM): 13.25 ± 0.32%
- S cell cycle phase ([3]; K562, 48 h, EE-84 30 μM): 20.99 ± 0.83%
- Sub-G1 cell cycle phase ([3]; K562, 48 h, EE-84 30 μM): 4.65 ± 2.42%
- G1 cell cycle phase ([3]; K562, 48 h, EE-84 50 μM): 58.40 ± 2.81%
- G2/M cell cycle phase ([3]; K562, 48 h, EE-84 50 μM): 12.86 ± 1.46%
- S cell cycle phase ([3]; K562, 48 h, EE-84 50 μM): 20.41 ± 1.84%
- Sub-G1 cell cycle phase ([3]; K562, 48 h, EE-84 50 μM): 8.34 ± 1.51%
- G1 cell cycle phase ([3]; K562, 72 h, EE-84 10 μM): 60.83 ± 2.33%
- G2/M cell cycle phase ([3]; K562, 72 h, EE-84 10 μM): 17.57 ± 0.90%
- S cell cycle phase ([3]; K562, 72 h, EE-84 10 μM): 17.52 ± 4.24%
- Sub-G1 cell cycle phase ([3]; K562, 72 h, EE-84 10 μM): 4.08 ± 2.80%
- G1 cell cycle phase ([3]; K562, 72 h, EE-84 30 μM): 55.09 ± 2.26%
- G2/M cell cycle phase ([3]; K562, 72 h, EE-84 30 μM): 17.03 ± 2.69%
- S cell cycle phase ([3]; K562, 72 h, EE-84 30 μM): 21.55 ± 1.64%
- Sub-G1 cell cycle phase ([3]; K562, 72 h, EE-84 30 μM): 6.33 ± 0.74%
- G1 cell cycle phase ([3]; K562, 72 h, EE-84 50 μM): 52.03 ± 2.99%
- G2/M cell cycle phase ([3]; K562, 72 h, EE-84 50 μM): 15.08 ± 2.89%
- S cell cycle phase ([3]; K562, 72 h, EE-84 50 μM): 19.85 ± 1.33%
- Sub-G1 cell cycle phase ([3]; K562, 72 h, EE-84 50 μM): 13.03 ± 1.19%
